Data set [1] deals with hepatitis B surface antigen (HBsAg). Put plainly: Determination of hepatitis B surface antigen (HBsAg) in HepG2.2.15 cell supernatant. Format: cell-based, hepatitis B virus (HepG2.2.15 cells). The note with it: Hepatitis B virus, HepG2.2.15, 96 h, read-out: HBsAg inhibitory activity IC50. As for the experimental part:
(§1) The full genome of HBV was inserted into an […] cell, which could therefore express HBV continuously (Sells et al, Proc Natl Acad Sci USA. 1987 February; 84 (4):1005-9). The culture condition was DMEM medium containing 10% serum and […] G418. Cells were placed in an incubator containing 5% CO2 and cultured at 37° C.
HepG2.2.15 cells were seeded into a 96-well culture plate at a density of 3×10^4 cells/well. On the next day, the drug dissolved in DMSO was subjected to a 5-fold dilution and then added to the cells. 0.5% DMSO was added separately as control. The supernatant was collected after 4 days of drug action, and the content of hepatitis B surface antigen was determined.
The determination of hepatitis B surface antigen was carried out by using a kit for quantitative determination of hepatitis B virus surface antigen (chemiluminescence method). The specific operations were as follows. 50 μL cell culture supernatant was taken and transferred to the assay plate. 50 μL of enzyme-linked reagent was added thereto and the assay plate was sealed. Incubation was carried out at room temperature for 1 hour. Afterwards, the assay plate was washed six times with PBS, and finally, the residual liquid was removed by shaking the plate. 25 μL of substrates A and B were added respectively, and the determination was conducted by using a microplate reader (Tecan Infinite® F200) after ten minutes of reaction. IC50 was calculated after fitting the dose-response curve.

Data set [2] in a line: Pharmacokinetic experiments in ICR mice (plasma). Format: in vivo. The note with it: for AUC(0-t): read-out: AUC0-12. As for the experimental part:
Multiple compounds in the Examples of the present disclosure were administered to ICR mice to conduct pharmacokinetic experiments. A single intravenous injection (with a dose of 2 mg/kg) and a single oral administration (with a dose of 10 mg/kg) were administered respectively. Blood was respectively collected prior to administration and 5 minutes, 15 minutes, 30 minutes, 1 hour, 2 hours, 4 hours, 8 hours, 12 hours and 24 hours after administration, and the concentration of the test compound in plasma was determined. Plasma pharmacokinetic data of the control compound (obtained from Example 28 in patent WO2018130152 A1) and the compounds of Examples 10 and 19 in the present disclosure in mice were as shown in the following Table 5 to Table 7.

The subject of another data set is HBV DNA. Put plainly: Determination of HBV DNA in HepG2.2.15 cell supernatant by qPCR. The class given is cell-based, hepatitis B virus (HepG2.2.15 cells). The conditions noted are these: Hepatitis B virus, 168 h, HepG2.2.15 cells, supernatant after a total of 7 days of drug action, read-out: Inhibitory activity against HBV DNA IC50. As for the experimental part:
as §1
HepG2.2.15 cells were seeded into a 96-well culture plate at a density of 4×10^4 cells/well. After 4 hours, the drug dissolved in DMSO was subjected to a 4-fold dilution and then added to cells. 0.5% DMSO was added separately as control. On the 4th day of drug action, the original supernatant was removed and then the drug was added thereto again. The supernatant was collected after a total of 7 days of drug action and treated with lysis buffer. The determination of hepatitis B DNA was carried out by real-time fluorescence-based quantitative polymerase chain reaction (qPCR). After the completion of the qPCR, data were exported from the instrument and analyzed, and IC50 indicating antiviral activity was calculated after fitting the dose-response curve.
A general note: Real-time PCR tracks product formation cycle by cycle.

Where [3] appears, read: mouse, single intravenous injection 2 mg/kg, plasma.
Where [4] appears, read: mouse, single oral administration 10 mg/kg, plasma.

SMILES strings stand for the structures. pIC50: −log10 of the molar value. Read-outs that look alike come from different tables or passages of the source.

The term pIC50 denotes the negative decadic logarithm of the IC50, by convention in mol/L. One may read the bioavailability as dose-corrected exposure relative to a reference, in per cent. For orientation: AUC(0-inf) means the area under the concentration-time curve extrapolated to infinity. High values mean more exposure, low ones less exposure. One may read the Cmax as the peak of the concentration-time curve. For orientation: Tmax means the time at which the peak concentration occurs. The clearance is the volume of plasma or blood freed of the substance per unit of time. Usually half-life stands for the time in which the quantity being followed falls by half. High values mean slow loss, low ones fast loss. As for `COCc1ncc(-c2cc3c(cc2OC)-c2cc(=O)c(C(=O)O)cn2C(C(C)(C)C)C3)s1` (stereo not shown) [Example 10, 6-tert-butyl-10-methoxy-9-[2-(methoxymethyl)thiazol-5-yl]-2-oxo-6,7-dihydro-2H-pyrido[2,1-a]isoquinoline-3-carboxylic Acid], in data set [1], the pIC50 is 9.70. Moreover, the bioavailability in data set [2] (mouse, plasma, oral 10 mg/kg vs intravenous 2 mg/kg, read-out: F (bioavailability)) came out at 33.9%. Further, in data set [2] (setting [3]), the area under the curve AUC(0-inf) amounted to 804 ng·h/mL, the highest level (Cmax) was 423 ng/mL, the Tmax stood at 0.08 h and the clearance is 41.4 mL/min/kg. In data set [2] (setting [3]), the half-life is 1.9 h and the AUC(0-t) came to 796 ng·h/mL. The Vd in data set [2] (mouse, single intravenous injection 2 mg/kg, plasma, read-out: Vss) came out at 5.42 L/kg. Also, in data set [2] (setting [4]), the AUC(0-inf) amounted to 1400 ng·h/mL, the highest level (Cmax) was 458 ng/mL, the time to peak (Tmax) was 0.5 h and the half-life was 2.6 h. Moreover, in data set [2] (setting [4]), the AUC(0-t) was found to be 1350 ng·h/mL. In data set [2] (same dose, after intravenous injection and oral administration), the “plasma exposure compared with the control compound” value was “significantly higher”. In addition, the pIC50 in the data set with HBV DNA was 9.89.
Consider `COc1cc2c(cc1-c1cnc(N3CC(F)C3)s1)CC(C(C)(C)C)n1cc(C(=O)O)c(=O)cc1-2` (stereo not shown) [Example 11, 6-tert-butyl-9-[2-(3-fluoroazetidin-1-yl)thiazol-5-yl]-10-methoxy-2-oxo-6,7-dihydro-2H-pyrido[2,1-a]isoquinoline-3-carboxylic Acid], for which the pIC50 in data set [1] was 10.05; in the data set on HBV DNA, 9.89.
The corresponding values for `CCOc1ncc(-c2cc3c(cc2OC)-c2cc(=O)c(C(=O)O)cn2C(C(C)(C)C)C3)s1` (stereo not shown) [Example 13, 6-tert-butyl-9-[2-(ethoxy)thiazol-5-yl]-10-methoxy-2-oxo-6,7-dihydro-2H-pyrido[2,1-a]isoquinoline-3-carboxylic Acid] are 9.70 and 9.51.
With `COc1cc2c(cc1-c1cnc(C(C)O)s1)CC(C(C)(C)C)n1cc(C(=O)O)c(=O)cc1-2` (stereo not shown) [Example 16, 6-tert-butyl-9-[2-(1-hydroxyethyl)thiazol-5-yl]-10-methoxy-2-oxo-6,7-dihydro-2H-pyrido[2,1-a]isoquinoline-3-carboxylic Acid], the negative logarithm of the IC50 (pIC50) in data set [1] is 10.00; with HBV DNA, 9.39.
As for `CCCc1ncc(-c2cc3c(cc2OC)-c2cc(=O)c(C(=O)O)cn2C(C(C)(C)C)C3)s1` (stereo not shown) [Example 18, 6-tert-butyl-10-methoxy-2-oxo-9-(2-propylthiazol-5-yl)-6,7-dihydro-2H-pyrido[2,1-a]isoquinoline-3-carboxylic Acid], the pIC50 in data set [1] was 10.05; in the data set on HBV DNA, 10.22.
On to `COc1cc2c(cc1-c1cnc(COC(F)F)s1)CC(C(C)(C)C)n1cc(C(=O)O)c(=O)cc1-2` (stereo not shown) [Example 23, 6-tert-butyl-9-{2-[(difluoromethoxy)methyl]thiazol-5-yl}-10-methoxy-2-oxo-6,7-dihydro-2H-pyrido[2,1-a]isoquinoline-3-carboxylic Acid], for which the results for the pIC50 (in data set [1]; in the data set on HBV DNA) were 9.70 and 9.08, respectively.
For `COc1cc2c(cc1-c1cnc(COC3CC3)s1)CC(C(C)(C)C)n1cc(C(=O)O)c(=O)cc1-2` (stereo not shown) [Example 24, 6-tert-butyl-9-[2-(cyclopropoxymethyl)thiazol-5-yl]-10-methoxy-2-oxo-6,7-dihydro-2H-pyrido[2,1-a] isoquinoline-3-carboxylic Acid], in that order: 9.70 and 9.35.

These data come from patent publication US20220081434A1, “DIHYDROISOQUINOLINE COMPOUND” (SUZHOU ARK BIOPHARMACEUTICAL CO., LTD., priority 2019, published 2022).
